Measured values: US7557144B1, “Modulation of protein expression using carbocyclic aryl alkenoic acid derivatives” (The Johns Hopkins University, priority 2000, dated 2009)

Key:
Hsp40 = Hsp40 immunoblot of IB3-1 lysates; type: cell-based, human; settings: IB3-1 cells, increasing concentrations of 4-PBA
Protocol: (§1) 3. Immunoblot analysis. Whole cell lysates were prepared by solubilization with 2% SDS at 95° C. Protein concentration in the lysates was determined using the Bio-Rad DC assay reagents with bovine plasma g-globulin as a standard (Bio-Rad Laboratories, Hercules, Calif.). Equal amounts of protein was resolved on 5, 7, 8, or 9% SDS-polyacrylamide gels. Proteins were transferred to nitrocellulose, and immunodetection was performed as previously described (25). Nonspecific binding was blocked by incubation of the nitrocellulose with 2% gelatin or 10% nonfat day milk. Primary antisera and secondary antibodies were applied in buffer containing 0.4% BSA overnight at 4° C. and for 1 h at room temperature, respectively. Detection of immunoreactivity was performed with the enhanced chemiluminescence reagent (ECL, Amer-sham) and fluorography. Recombinant bovine Hsc70 ([…]) was purchased from Stressgen Biotechnologies for use in constructing a standard curve of Hsc70 immunoreactivity. Immunoblots containing the bovine Hsc70 were probed with the Hsc70-specific polyclonal antiserum.
Whether 4-PBA would regulate expression of a number of other molecular chaperones in IB3-1 cells (FIG. 2) was assessed next. […] Hsp90 is required for correct folding and function of a number of cellular proteins (16). […] Hsp70 (Hsp72) expression is induced by heat shock and the presence of denatured proteins within the eukaryotic cell (16). In Escherichia coli, the Hsp70 homologue DnaK and the Hsp40 homologue DnaJ act to promote protein folding (16). Hdj2 is the member of the Hsp40 family that specifically interacts with and regulates the ATPase activity of Hsc70. Hdj2 also interacts with CFTR during CFTR translation (26).
FIGS. 2A-2E are more specifically explained as follows. […]
FIGS. 5A-C are explained in more detail as follows. […] Cellular homogenates were prepared in 2% SDS as described in METHODS, and 5 μg of total cellular protein were analyzed by immunoblot for Hsc70 using rabbit polyclonal antiserum, Hsp90, Hsp70, Hsp40 as described above under General Comments. […]

Hsc70 mRNA = assay: RNase protection assay of Hsc70 mRNA in IB3-1 cells; type: cell-based, human
Excerpt: 4. RNase protection. An Hsc70-specific probe for RNase protec-tion was constructed by isolation a 500-bp EcoR I fragment from American Type Culture Collection (ATCC) plasmid 77659 (ATCC, Manassas, Va.) and ligating this fragment into the EcoR I site of pSK(2) (Bluescript, Stratagene, La Jolla, Calif.). The resulting plasmid was sequenced in the Genetics Core Facility at the Johns Hopkins Hospital and found to be identical to sequences in exons 8 and 9 of the human Hsc70 sequence, with sequencing using the T3 primer and T7 primer leading to sense and antisense sequence, respectively. Hybridization probes were synthesized using a Maxiscript T7 kit (Ambion, Austin, Tex.) and [α^32 P]UTP (Amersham or DuPont NEN, Boston, Mass.) according to the Maxiscript protocol. Templates for internal control hybridizations, pTRI-18S and pTRI-cyclophilin A, were purchased from Ambion, and probes were similarly synthesized using the Maxiscript T7 kit. Probes were isolated by acid phenol-chloroform (Ambion) extraction, separated from unincorporated nucleotide by gel filtration (Sephadex G25 RNAspin column, Boehringer-Mannheim), and ethanol-acetate precipitated before resuspension in hybridization buffer. The concentration of radioactivity in the synthesized probes was determined by liquid scintillation.
RNase protection experiments were performed using the Direct Protect RNase protection assay kit (Ambion) according to the manufacturer's protocol. IB3-1 cell lysates were pre-pared in Direct Protect lysis buffer according to the manufacturer's protocol after incubation under the appropriate conditions for 48 h. Probe (50-70 and 5-10 thousands of counts/min for Hsc70 and control, respectively) and cellular RNA were hybridized overnight at 37° C. and digested with RNase cocktail. Protected fragments were resolved by electrophoresis on 5% acrylamide-8 M urea gels and detected by fluorography. Hsc70 mRNA concentration is expressed relative to control (18S or cyclophilin A) hybridization by densitometry (see Densitometric analysis). Results for hybridization of Hsc70 mRNA relative to the two control species were similar and were therefore grouped for data analysis.
FIGS. 3A-B are explained in more detailed as follows. Dose-dependent downregulation of Hsc70 mRNA expression by 4-PBA. A: IB3-1 cells were treated as for FIGS. 1 and 2. Hsc70 mRNA and 18S rRNA (as an internal reference) were measured by Direct Protect RNase protection as described under General Comments. […] P values (shown above respective error bars) were determined by 1-way ANOVA in comparison with control.
FIG. 6 is explained in more detail as follows. […] P values (shown above respective error bars) were determined by 1-way ANOVA in comparison with control.

ΔF508-CFTR/Hsc70 complex = assay: Immunoprecipitation of Hsc70 and coimmunoprecipitation of CFTR from treated IB3-1 cells; type: cell-based, human; settings: 2 days
CFTR [1] = assay: CFTR immunoblot with anti-CFTR antibody 181 in IB3-1 cells; type: cell-based, human; settings: increasing concentrations of 4-phenylbutyrate (FIG. 14)
Protocol: as §1
Control cells at 37° C. show band B CFTR, but virtually undetectable band C CFTR. These cells as expected show very little Hsp70, the heat shock inducible chaperone. At 27° C., a lower temperature, there is very little Hsp70 as expected, but as expected, there has been induction of band C CFTR.

CFTR [2] = settings: homozygous ΔF508 patients taking the drug for 1 week; Rubenstein et al. 1998; cited from earlier work
[3] = increasing concentrations of 4-PBA

Q: Which results are given for O=C(O)CCCc1ccccc1 [4-PBA, 4-phenylbutyric acid]?
A: expression of Hsp40 (Hsp40): did not affect; steady-state Hsc70 mRNA levels (Hsc70 mRNA; 4-PBA treatment, relative to 18S rRNA): concentration-dependent decrease; maximum decrease of Hsc70 mRNA, of control expression (Hsc70 mRNA; continuous exposure to 5 mM 4-PBA): ~50%; 4-PBA concentration at which CFTR was undetectable in the immunoprecipitates (ΔF508-CFTR/Hsc70 complex): > 1 mM; immunoprecipitable Hsc70 (ΔF508-CFTR/Hsc70 complex; [3]): decreased amounts; immunoreactive CFTR recovered in complex with Hsc70 (ΔF508-CFTR/Hsc70 complex; [3]): less immunoreactive CFTR was recovered; band C CFTR (CFTR [1]): promotes appearance of band C CFTR; chloride transport in nasal potential difference measurements (CFTR [2]): increase chloride transport
